According to patent publication US20210115104A1, “AMYLIN ANALOGUES” (Zealand Pharma A/S, priority 2015, published 2021):
*1 amine or outer side, *2 acyl side, *3 side chain or, on linkers, in order; H or OH if unused. Where a SMILES comes first, the peptide text is derived from it. Bridges are numbered along the chain shown (N, C = ends). [ ]: non-standard residue; d: D form. The star is where a group is joined. C20 diacid = O=C(O)CCCCCCCCCCCCCCCCCCC(=O)*; γGlu = O=C(O)[C@H](CCC(=O)[*:2])N[*:1]; Hyp = O=C(O)[C@@H]1C[C@@H](O)CN1; NMeI = CC[C@H](C)[C@H](NC)C(=O)O; Orn = NCCC[C@H](N)C(=O)O; Sar = CNCC(=O)O

Tests used:
[1] = biological target: T1, human calcitonin receptor (hCTR2) (Homo sapiens, UniProt P30988); test: hCTR2 cAMP assay (AlphaScreen) in COS7 cells; type: cell-based; conditions: cAMP induction, COS7 cells expressing hCTR2; Table 1; read-out: hCTR2 EC50
T1 construct: expressed in transfected cells
T1 sequence (P30988 25-474): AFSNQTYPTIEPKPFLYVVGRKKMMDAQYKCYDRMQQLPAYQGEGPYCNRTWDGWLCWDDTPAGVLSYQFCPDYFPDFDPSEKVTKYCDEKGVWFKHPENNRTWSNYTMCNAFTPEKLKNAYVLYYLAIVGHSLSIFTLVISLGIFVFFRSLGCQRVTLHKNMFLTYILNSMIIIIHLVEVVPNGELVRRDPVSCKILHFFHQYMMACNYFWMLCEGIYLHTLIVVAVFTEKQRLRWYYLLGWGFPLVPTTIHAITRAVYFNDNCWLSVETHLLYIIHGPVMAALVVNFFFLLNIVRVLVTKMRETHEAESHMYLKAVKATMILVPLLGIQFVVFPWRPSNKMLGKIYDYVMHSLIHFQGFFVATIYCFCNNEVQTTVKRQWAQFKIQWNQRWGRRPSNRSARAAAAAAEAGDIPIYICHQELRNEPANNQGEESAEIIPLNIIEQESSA
Summary of the method: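 Stable hCTR2 clone in RAMP-naïve COS7 cells stimulated 15 min at 37 °C with increasing peptide concentrations in Tyrode buffer pH 7.4 containing IBMX and 0.1% casein. cAMP in lysates measured by AlphaScreen; EC50 from 4-parameter logistic fit.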

[2] = biological target: T2, human amylin receptor 3 (hAMYR3), hCTR2 co-expressed with hRAMP3 (Homo sapiens, UniProt O60896+P30988); test: hAMYR3 cAMP assay (AlphaScreen) in COS7 cells; type: cell-based; conditions: cAMP induction, COS7 cells expressing hAMYR3; Table 1; read-out: hAMYR3 EC50
T2 construct: expressed in transfected cells
T2 sequence (P30988 25-474): T1 sequence (P30988 25-474)
T2 sequence (O60896 24-148 partner): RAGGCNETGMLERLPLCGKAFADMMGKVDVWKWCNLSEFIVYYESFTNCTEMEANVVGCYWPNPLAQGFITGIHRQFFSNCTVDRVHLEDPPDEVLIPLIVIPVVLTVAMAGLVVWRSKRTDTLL
Summary of the method: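 Stable COS7 clone co-expressing hCTR2 and hRAMP3 was exposed to increasing peptide concentrations in Tyrode buffer (pH 7.4) with 100 µM IBMX and 0.1% casein for 15 min at 37 °C. Lysate cAMP was measured by AlphaScreen; EC50 came from 4-parameter logistic fitting.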

[3] = Assessment of physical stability (Thioflavin T fibrillation); type: physicochemical; set-up: key: FND = fibrillation not detected; FD = fibrillation detected; conditions: 1 mg/ml, 40° C., ThT; for Fibrillation pH 4.0 (Ac): 50 mM acetate buffer pH 4.0, 96 hours; for Fibrillation pH 7.0 (His): 50 mM histidine buffer pH 7.0, 96 hours; for Fibrillation pH 7.0 (Phos.): 50 mM phosphate buffer pH 7.0, 96 hours
Summary of the method: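 1 mg/ml peptide with 40 μM ThT in 50 mM phosphate pH 7.0, 50 mM histidine pH 7.0 or 50 mM acetate pH 4.0, in triplicate. Fluorescence read every 10 min after 300 s agitation over 96 h at 40 °C. Lag-time (h) is the intersection of linear fits to stable and growth phases.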

[4] = Assessment of chemical stability (RP-HPLC normalized purity); type: physicochemical; conditions: 7 days, 40° C., Table 1; for Normalized purity after 7 days, 40° C., pH 4: pH 4, 0.2 mg/ml; for Normalized purity after 7 days, 40° C., pH 6: pH 6, 0.2 mg/ml; for Normalized purity after 7 days, 40° C., pH 7.5: pH 7.5, 0.2 mg/ml; for Normalized purity after 7 days, 40° C., pH 9: pH 9, 0.2 mg/ml
Summary of the method: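 Peptides at 0.2 mg/ml in water adjusted to pH 4, 6, 7.5 or 9, incubated at 40° C for 7 days. Main-peak area-% by RP-HPLC (C8 ammonium formate or C18 TFA gradient, UV 220 nm), normalized to T=0 as 100.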

In the case of `CC[C@H](C)[C@@H](C(=O)N[C@@H](CC(C)C)C(=O)N[C@@H](CO)C(=O)N[C@@H](CO)C(=O)N[C@H](C(=O)N[C@@H](CCC(=O)O)C(=O)N[C@H](C(=O)NCC(=O)N[C@@H](CO)C(=O)N[C@@H](CC(N)=O)C(=O)N[C@H](C(=O)N1C[C@H](O)C[C@H]1C(N)=O)[C@@H](C)O)C(C)C)[C@@H](C)O)N(C)C(=O)[C@H](C)NC(=O)CN(C)C(=O)[C@H](Cc1ccccc1)NC(=O)[C@H](CO)NC(=O)[C@H](CO)NC(=O)[C@H](CCCNC(=N)N)NC(=O)[C@H](CCCCN)NC(=O)[C@H](CC(C)C)NC(=O)[C@H](Cc1ccccc1)NC(=O)[C@H](Cc1c[nH]cn1)NC(=O)[C@H](C)NC(=O)[C@H](CC(C)C)NC(=O)[C@H](CCCNC(=N)N)NC(=O)[C@H](CCC(=O)O)NC(=O)[C@@H](NC(=O)[C@H](C)NC(=O)[C@@H]1CSSC[C@H](NC(=O)[C@H](CCCNC(=N)N)NC(=O)CC[C@H](NC(=O)CCCCCCCCCCCCCCCCCCC(=O)O)C(=O)O)C(=O)NCC(=O)N[C@@H]([C@@H](C)O)C(=O)N[C@@H](C)C(=O)N[C@@H]([C@@H](C)O)C(=O)N1)[C@@H](C)O` [Compound 19, [19CD]-isoGlu-R-C( )-GTAT-C( )-ATERLAHFLKRSSF-Gly(Me)-A-Ile(Me)-LSSTEVGSNT-Hyp-NH2] ({C20 diacid-γGlu}-RCGTATCATERLAHFLKRSSF[Sar]A[NMeI]LSSTEVGSNT[Hyp]-NH2; disulfide 2-7), the EC50 [1] is reported as 160 pM, the EC50 [2] is reported as 280 pM and the “Fibrillation pH 4.0 (Ac)” value [3] is reported as “FND”. The “Fibrillation pH 7.0 (His)” value [3] was “FND”, the “Fibrillation pH 7.0 (Phos.)” value [3] was “FND” and the “Normalized purity after 7 days, 40° C., pH 4” value (“Normalized purity … pH 4” below) [4] was “A (A = >90%)”. The “Normalized purity after 7 days, 40° C., pH 6” value (shortened to “Normalized purity … pH 6”) [4] was “A (A = >90%)”, the “Normalized purity after 7 days, 40° C., pH 7.5” value (“Normalized purity … pH 7.5” for short) [4] was “A (A = >90%)” and the “Normalized purity after 7 days, 40° C., pH 9” value (from here on “Normalized purity … pH 9”) [4] was “C (C = <70%)”.

With `CC[C@H](C)[C@@H](C(=O)N[C@@H](CC(C)C)C(=O)N[C@@H](CO)C(=O)N[C@@H](CO)C(=O)N[C@H](C(=O)N[C@@H](CCC(=O)O)C(=O)N[C@H](C(=O)NCC(=O)N[C@@H](CO)C(=O)N[C@@H](CO)C(=O)N[C@H](C(=O)N1CCC[C@H]1C(N)=O)[C@@H](C)O)C(C)C)[C@@H](C)O)N(C)C(=O)[C@H](C)NC(=O)CN(C)C(=O)[C@H](Cc1ccccc1)NC(=O)[C@H](CO)NC(=O)[C@H](CO)NC(=O)[C@H](CCCNC(=N)N)NC(=O)[C@H](CC(N)=O)NC(=O)[C@H](CC(C)C)NC(=O)[C@H](Cc1ccccc1)NC(=O)[C@H](Cc1c[nH]cn1)NC(=O)[C@H](C)NC(=O)[C@H](CC(C)C)NC(=O)[C@H](CCCNC(=N)N)NC(=O)[C@H](CCC(=O)O)NC(=O)[C@@H](NC(=O)[C@H](C)NC(=O)[C@@H]1CSSC[C@H](NC(=O)[C@H](CCCNC(=N)N)NC(=O)CC[C@H](NC(=O)CCCCCCCCCCCCCCCCCCC(=O)O)C(=O)O)C(=O)NCC(=O)N[C@@H]([C@@H](C)O)C(=O)N[C@@H](C)C(=O)N[C@@H]([C@@H](C)O)C(=O)N1)[C@@H](C)O` [Compound 35, [19CD]-isoGlu-R-C( )-GTAT-C( )-ATERLAHFLNRSSF-Gly(Me)-A-Ile(Me)-LSSTEVGSSTP-NH2] ({C20 diacid-γGlu}-RCGTATCATERLAHFLNRSSF[Sar]A[NMeI]LSSTEVGSSTP-NH2; disulfide 2-7) the EC50 [1] was 50 pM, the EC50 [2] was 110 pM and the “Fibrillation pH 4.0 (Ac)” value [3] was “FND”. For the same compound, the “Fibrillation pH 7.0 (His)” value [3] was “FND”, the “Fibrillation pH 7.0 (Phos.)” value [3] was “FND” and the “Normalized purity … pH 4” value [4] was “A (A = >90%)”. For the same compound, the “Normalized purity … pH 6” value [4] was “A (A = >90%)”, the “Normalized purity … pH 7.5” value [4] was “B (B = 70-90%)” and the “Normalized purity … pH 9” value [4] was “B (B = 70-90%)”.

In the case of `CC[C@H](C)[C@@H](C(=O)N[C@@H](CC(C)C)C(=O)N[C@@H](CO)C(=O)N[C@@H](CO)C(=O)N[C@H](C(=O)N[C@@H](CCC(=O)O)C(=O)N[C@H](C(=O)NCC(=O)N[C@@H](CO)C(=O)N[C@@H](CCCN)C(=O)N[C@H](C(=O)N1C[C@H](O)C[C@H]1C(N)=O)[C@@H](C)O)C(C)C)[C@@H](C)O)N(C)C(=O)[C@H](C)NC(=O)CN(C)C(=O)[C@H](Cc1ccccc1)NC(=O)[C@H](CO)NC(=O)[C@H](CO)NC(=O)[C@H](CCCNC(=N)N)NC(=O)[C@H](CCC(N)=O)NC(=O)[C@H](CC(C)C)NC(=O)[C@H](Cc1ccccc1)NC(=O)[C@H](Cc1c[nH]cn1)NC(=O)[C@H](C)NC(=O)[C@H](CC(C)C)NC(=O)[C@H](CCCNC(=N)N)NC(=O)[C@H](CCC(=O)O)NC(=O)[C@@H](NC(=O)[C@H](C)NC(=O)[C@@H]1CSSC[C@H](NC(=O)[C@H](CCCNC(=N)N)NC(=O)CC[C@H](NC(=O)CCCCCCCCCCCCCCCCCCC(=O)O)C(=O)O)C(=O)NCC(=O)N[C@@H]([C@@H](C)O)C(=O)N[C@@H](C)C(=O)N[C@@H]([C@@H](C)O)C(=O)N1)[C@@H](C)O` [Compound 51, [19CD]-isoGlu-R-C( )-GTAT-C( )-ATERLAHFLQRSSF-Gly(Me)-A-Ile(Me)-LSSTEVGS-Orn-T-Hyp-NH2] ({C20 diacid-γGlu}-RCGTATCATERLAHFLQRSSF[Sar]A[NMeI]LSSTEVGS[Orn]T[Hyp]-NH2; disulfide 2-7), the EC50 [1] is reported as 80 pM, the EC50 [2] is reported as 110 pM and the “Fibrillation pH 4.0 (Ac)” value [3] is reported as “FND”. For the same compound, the “Fibrillation pH 7.0 (His)” value [3] was “FND”, the “Fibrillation pH 7.0 (Phos.)” value [3] was “FND” and the “Normalized purity … pH 4” value [4] was “A (A = >90%)”. For the same compound, the “Normalized purity … pH 6” value [4] was “B (B = 70-90%)”, the “Normalized purity … pH 7.5” value [4] was “B (B = 70-90%)” and the “Normalized purity … pH 9” value [4] was “B (B = 70-90%)”.

In the case of `CC[C@H](C)[C@@H](C(=O)N[C@@H](CC(C)C)C(=O)N[C@@H](CO)C(=O)N[C@@H](CO)C(=O)N[C@H](C(=O)N[C@@H](CCC(=O)O)C(=O)N[C@H](C(=O)NCC(=O)N[C@@H](CO)C(=O)NCC(=O)N[C@H](C(=O)N1C[C@H](O)C[C@H]1C(N)=O)[C@@H](C)O)C(C)C)[C@@H](C)O)N(C)C(=O)[C@H](C)NC(=O)CN(C)C(=O)[C@H](Cc1ccccc1)NC(=O)[C@H](CO)NC(=O)[C@H](CO)NC(=O)[C@H](CCCNC(=N)N)NC(=O)[C@H](CCC(N)=O)NC(=O)[C@H](CC(C)C)NC(=O)[C@H](Cc1ccccc1)NC(=O)[C@H](Cc1c[nH]cn1)NC(=O)[C@H](C)NC(=O)[C@H](CC(C)C)NC(=O)[C@H](CCCNC(=N)N)NC(=O)[C@H](CCC(=O)O)NC(=O)[C@@H](NC(=O)[C@H](C)NC(=O)[C@@H]1CSSC[C@H](NC(=O)[C@H](CCCNC(=N)N)NC(=O)CC[C@H](NC(=O)CCCCCCCCCCCCCCCCCCC(=O)O)C(=O)O)C(=O)NCC(=O)N[C@@H]([C@@H](C)O)C(=O)N[C@@H](C)C(=O)N[C@@H]([C@@H](C)O)C(=O)N1)[C@@H](C)O` [Compound 52, [19CD]-isoGlu-R-C( )-GTAT-C( )-ATERLAHFLQRSSF-Gly(Me)-A-Ile(Me)-LSSTEVGSGT-Hyp-NH2] ({C20 diacid-γGlu}-RCGTATCATERLAHFLQRSSF[Sar]A[NMeI]LSSTEVGSGT[Hyp]-NH2; disulfide 2-7), the EC50 [1] is reported as 70 pM, the EC50 [2] is reported as 90 pM and the “Fibrillation pH 4.0 (Ac)” value [3] is reported as “FND”. For the same compound, the “Fibrillation pH 7.0 (His)” value [3] was “FND”, the “Fibrillation pH 7.0 (Phos.)” value [3] was “FND” and the “Normalized purity … pH 4” value [4] was “A (A = >90%)”. For the same compound, the “Normalized purity … pH 6” value [4] was “B (B = 70-90%)”, the “Normalized purity … pH 7.5” value [4] was “B (B = 70-90%)” and the “Normalized purity … pH 9” value [4] was “B (B = 70-90%)”.
